For orientation: inhibition means the relative decrease from the control value, in per cent. Read a low inhibition as a weak effect.

Molecules are shown by their SMILES. Several values for one entry are separate records, joined by “and”; a condition that tells them apart may be missing. Equal entries are not always repeated. Bounds are passed on as bounds.

The first data set deals with C. utilis. Description: In vitro susceptibility testing, C. utilis clinical isolate. The data set is classed as cell-based. Particulars: Williopsis jadinii; clinical isolate; read-out: IC50 C. utilis. The text has this:
(§1) The yeasts included in the present study were Candida albicans ATCC 10231 (American Type Culture Collection) and a collection of yeasts recovered from a variety of clinical specimens, i.e., blood, urine, genital swabs, bronchoalveolar lavage, nail specimens, collected at the Microbiology Unit, St. Orsola Malpighi University Hospital, Bologna, Italy. The clinical strain isolates were identified by standard procedures, including colony morphology on chromogenic agar (CHROMagar Candida medium, Becton Dickinson, Heidelberg, Germany) and confirmed by MALDI Biotyper System using matrix-assisted laser desorption ionization–time of flight mass spectrometry (MALDI-TOF MS, Bruker Daltonik, GmbH, Germany).
(§2) The in vitro antifungal activity of the chalcones was evaluated by a microdilution broth method in accordance with the guidelines provided by the EUCAST Edef 7.3 [22]. Briefly, all strains were cultured on Sabauraud dextrose, then inocula, prepared at 0.5 McFarland, were diluted 1:20 in RPMI-1640 medium (Gibco®, ThermoFisher Scientific Inc., Waltham, MA, USA), containing glucose 2%, 0.3% levo-glutamine buffered to pH 7.0 with 0.165 M 3-(N-morpholino)propanesulfonic acid (MOPS) to yield 1-5 × 10^5 cells/mL. A total of 100 µL of the yeast suspension was inoculated in a 96-well microplate and incubated with 100 µL of serially 2-fold dilution of the compound in the range 200–6.25 µM. The following controls were included: yeast suspensions incubated in RPMI-1640 culture medium (positive growth control), or supplemented with dilutions of DMSO, or fluconazole (Sigma-Aldrich, St. Louis, MO, USA) as a commercial drug. To check the background turbidity of reagents and the sterility of the procedure, dilutions of each compound were incubated in RPMI-1640 culture medium, without yeast inoculum. The inoculated plate was incubated at 37 °C for 24 h, and subsequently the optical density at 630 nm was measured by the Multiskan Ascent microplate reader (Thermo Fisher Scientific Inc.). The effectiveness of the compounds was expressed as percent inhibition relative to the positive growth control when the inhibition […] the 50% at 100 µM. The IC50 value was determined by interpolation of the dose–response curves generated by plotting the percentages of growth inhibition, relative to the drug-free control (set to 100% of growth), as a function of the tested concentrations (on a logarithm scale). Statistical analysis was carried out by the nonlinear regression method using GraphPad Prism version 5.0 for Windows (GraphPad Software, San Diego, CA, USA). All assays were performed in triplicate and at least two independent experiments were carried out.
On to `O=C(/C=C/c1ccccc1)c1cc(Cl)ccc1O` [Compound 1, (E)-1-(5-Chloro-2-hydroxyphenyl)-3-phenylprop-2-en-1-one], for which the IC50 is 84.5 µM and 21.9 µg/mL.
Same read-out and setting: under `O=C(/C=C/c1cccc(F)c1)c1cc(Cl)ccc1O` [Compound 3, (E)-1-(5-Chloro-2-hydroxyphenyl)-3-(3-fluorophenyl)prop-2-en-1-one] stands 100 µM and 27.7 µg/mL.

A further data set relates to C. parapsilosis. Description: In vitro susceptibility testing, C. parapsilosis clinical isolate. The format is cell-based. Particulars: Lodderomyces parapsilosis; clinical isolate; read-out: IC50 C. parapsilosis.
Description: as §1, §2
For the compound `O=C(/C=C/c1ccccc1)c1cc(Cl)ccc1O` [Compound 1, (E)-1-(5-Chloro-2-hydroxyphenyl)-3-phenylprop-2-en-1-one], the IC50 was 200 µM and 51.7 µg/mL.
`O=C(/C=C/c1cccc(F)c1)c1cc(Cl)ccc1O` [Compound 3, (E)-1-(5-Chloro-2-hydroxyphenyl)-3-(3-fluorophenyl)prop-2-en-1-one]: the IC50 is 41.5 µM and 11.5 µg/mL.

In the next data set the test system is R. mucilaginosa. Kind of data set: In vitro susceptibility testing, R. mucilaginosa clinical isolate. The data set is classed as cell-based. Particulars: clinical isolate; read-out: IC50 R. mucilaginosa.
Description: as §1, §2
As to `O=C(/C=C/c1ccccc1)c1cc(Cl)ccc1O` [Compound 1, (E)-1-(5-Chloro-2-hydroxyphenyl)-3-phenylprop-2-en-1-one], the IC50 was 83.7 µM and 21.7 µg/mL.
Turning to `O=C(/C=C/c1cccc(F)c1)c1cc(Cl)ccc1O` [Compound 3, (E)-1-(5-Chloro-2-hydroxyphenyl)-3-(3-fluorophenyl)prop-2-en-1-one], the IC50 was > 200 µM and > 55.3 µg/mL.

The test system of another data set is C. lusitaniae. Kind of data set: In vitro susceptibility testing, C. lusitaniae clinical isolate. The format is cell-based. The note with it: Clavispora lusitaniae; clinical isolate; read-out: IC50 C. lusitaniae.
Description: as §1, §2
Consider `O=C(/C=C/c1ccccc1)c1cc(Cl)ccc1O` [Compound 1, (E)-1-(5-Chloro-2-hydroxyphenyl)-3-phenylprop-2-en-1-one], for which the IC50 is 100 µM and 25.9 µg/mL.
The same measure, in the same setting: the figure for `O=C(/C=C/c1cccc(F)c1)c1cc(Cl)ccc1O` [Compound 3, (E)-1-(5-Chloro-2-hydroxyphenyl)-3-(3-fluorophenyl)prop-2-en-1-one] is 38.5 µM and 10.7 µg/mL.

The test system of a further data set is S. clavata. Kind of data set: In vitro susceptibility testing, S. clavata clinical isolate. The note with it: clinical isolate; read-out: IC50 S. clavata. The format is cell-based.
Description: as §1, §2
Consider `O=C(/C=C/c1ccccc1)c1cc(Cl)ccc1O` [Compound 1, (E)-1-(5-Chloro-2-hydroxyphenyl)-3-phenylprop-2-en-1-one], for which the IC50 is 200 µM and 51.7 µg/mL.
In the case of `O=C(/C=C/c1cccc(F)c1)c1cc(Cl)ccc1O` [Compound 3, (E)-1-(5-Chloro-2-hydroxyphenyl)-3-(3-fluorophenyl)prop-2-en-1-one], the IC50 was 37.2 µM and 10.3 µg/mL.

A further data set deals with C. neoformans. Kind of data set: In vitro susceptibility testing, C. neoformans clinical isolate. The data set is classed as cell-based. The note with it: Cryptococcus neoformans; clinical isolate; read-out: IC50 C. neoformans.
Description: as §1, §2
Consider `O=C(/C=C/c1ccccc1)c1cc(Cl)ccc1O` [Compound 1, (E)-1-(5-Chloro-2-hydroxyphenyl)-3-phenylprop-2-en-1-one], for which the IC50 was 26.4 µM and 6.8 µg/mL.
Regarding `O=C(/C=C/c1cccc(F)c1)c1cc(Cl)ccc1O` [Compound 3, (E)-1-(5-Chloro-2-hydroxyphenyl)-3-(3-fluorophenyl)prop-2-en-1-one], the IC50 was 35.2 µM and 9.7 µg/mL.

The subject of a further data set is C. albicans. Description: In vitro susceptibility testing, C. albicans clinical isolate. The format is cell-based. Particulars: Candida albicans; clinical isolate; mean and 95% confidence interval; read-out: IC50 C. albicans.
Description: as §1, §2
Regarding `O=C(/C=C/c1ccccc1)c1cc(Cl)ccc1O` [Compound 1, (E)-1-(5-Chloro-2-hydroxyphenyl)-3-phenylprop-2-en-1-one], the IC50 is 62.9 µM and 16.3 µg/mL.
With `O=C(/C=C/c1cccc(F)c1)c1cc(Cl)ccc1O` [Compound 3, (E)-1-(5-Chloro-2-hydroxyphenyl)-3-(3-fluorophenyl)prop-2-en-1-one], the IC50 was 100 µM and 27.7 µg/mL.

The test system of the next data set is C. krusei. Kind of data set: In vitro susceptibility testing, C. krusei clinical isolate. The data set is classed as cell-based. Particulars: Pichia kudriavzevii; clinical isolate; read-out: IC50 C. krusei.
Description: as §1, §2
Consider `O=C(/C=C/c1ccccc1)c1cc(Cl)ccc1O` [Compound 1, (E)-1-(5-Chloro-2-hydroxyphenyl)-3-phenylprop-2-en-1-one], for which the IC50 was 200 µM and 51.7 µg/mL.
Still for that read-out and setting: under `O=C(/C=C/c1cccc(F)c1)c1cc(Cl)ccc1O` [Compound 3, (E)-1-(5-Chloro-2-hydroxyphenyl)-3-(3-fluorophenyl)prop-2-en-1-one] stands > 200 µM and > 55.3 µg/mL.

The subject of the next data set is C. tropicalis. Kind of data set: In vitro susceptibility testing, C. tropicalis clinical isolate. The format is cell-based. Particulars: Candida tropicalis; clinical isolate; read-out: IC50 C. tropicalis.
Description: as §1, §2
On to `O=C(/C=C/c1ccccc1)c1cc(Cl)ccc1O` [Compound 1, (E)-1-(5-Chloro-2-hydroxyphenyl)-3-phenylprop-2-en-1-one], for which the IC50 was 200 µM and 51.7 µg/mL.
With `O=C(/C=C/c1cccc(F)c1)c1cc(Cl)ccc1O` [Compound 3, (E)-1-(5-Chloro-2-hydroxyphenyl)-3-(3-fluorophenyl)prop-2-en-1-one], the IC50 was > 200 µM and > 55.3 µg/mL.

Another data set deals with C. glabrata. Description: In vitro susceptibility testing, C. glabrata clinical isolate. The data set is classed as cell-based. The note with it: Nakaseomyces glabratus; clinical isolate; read-out: IC50 C. glabrata.
Description: as §1, §2
As to `O=C(/C=C/c1ccccc1)c1cc(Cl)ccc1O` [Compound 1, (E)-1-(5-Chloro-2-hydroxyphenyl)-3-phenylprop-2-en-1-one], the IC50 is 200 µM and 51.7 µg/mL.
Regarding `O=C(/C=C/c1cccc(F)c1)c1cc(Cl)ccc1O` [Compound 3, (E)-1-(5-Chloro-2-hydroxyphenyl)-3-(3-fluorophenyl)prop-2-en-1-one], the IC50 is > 200 µM and > 55.3 µg/mL.

System in another data set: not listed separately
Description: Cytotoxicity test on Vero cells (WST8/CCK-8 cell viability). The data set is classed as cell-based, African green monkey. Particulars: African green monkey, Vero cells (ATCC CCL-81), Vero cells, mean and 95% confidence interval, read-out: CC50. The protocol:
African green monkey kidney cells (Vero ATCC CCL-81) were cultured in Eagle’s Minimal Essential Medium (MEM) (Sigma-Aldrich), supplemented with 10% fetal bovine serum (FBS) (Carlo Erba Reagents, Milan, Italy), 100 U/mL penicillin, and 100 µg/mL streptomycin at 37 °C with 5% CO2. For experiments, cells were seeded into 96-well plates at 10^4 cells/well, and incubated at 37 °C for 24 h. Following washes with PBS, cell monolayer was incubated with 100 µL of serially 2-fold dilution of the compound in the range 200–6.25 µM. Both untreated cells and cells incubated with medium containing solvent dilutions were included in each experiment as controls.
The cell viability was assessed by a WST8-based assay according to the manufacturer’s instructions (CCK-8, Cell Counting Kit-8, Dojindo Molecular Technologies, Rockville, MD, USA). After 72 h of incubation, culture medium was removed from each well, the monolayer was washed with PBS, and 100 µL of fresh medium containing 10 µL of CCK-8 solution were added. Following a 2 h at 37 °C, the absorbance was measured at 450/630 nm; data were calculated as the percentage of the cell viability relative to the untreated controls.
As for `O=C(/C=C/c1ccccc1)c1cc(Cl)ccc1O` [Compound 1, (E)-1-(5-Chloro-2-hydroxyphenyl)-3-phenylprop-2-en-1-one], the CC50 at 72 h stood at 174 µM.
Regarding `O=C(/C=C/c1cccc(F)c1)c1cc(Cl)ccc1O` [Compound 3, (E)-1-(5-Chloro-2-hydroxyphenyl)-3-(3-fluorophenyl)prop-2-en-1-one], the CC50 at 72 h was 152 µM.

The same data set, now with this note: African green monkey, Vero cells (ATCC CCL-81), Vero cells, mean and 95% confidence interval, read-out: CC50 [μg/mL].
On to `O=C(/C=C/c1ccccc1)c1cc(Cl)ccc1O` [Compound 1, (E)-1-(5-Chloro-2-hydroxyphenyl)-3-phenylprop-2-en-1-one], for which the CC50 at 72 h was determined as 45 µg/mL.
Regarding `O=C(/C=C/c1cccc(F)c1)c1cc(Cl)ccc1O` [Compound 3, (E)-1-(5-Chloro-2-hydroxyphenyl)-3-(3-fluorophenyl)prop-2-en-1-one], the CC50 at 72 h is 42 µg/mL.

The subject of the next data set is C. albicans ATCC 10231. Description: In vitro susceptibility testing, microdilution broth (EUCAST), C. albicans control strain. The format is cell-based, Candida albicans. The note with it: Candida albicans, ATCC10231, C. albicans ATCC 10231; mean and 95% confidence interval; read-out: IC50. How it is done: as §2
As to `O=C(/C=C/c1ccccc1)c1cc(Cl)ccc1O` [Compound 1, (E)-1-(5-Chloro-2-hydroxyphenyl)-3-phenylprop-2-en-1-one], the IC50 stood at 52.8 µM.
Take `O=C(/C=C/c1cccc(F)c1)c1cc(Cl)ccc1O` [Compound 3, (E)-1-(5-Chloro-2-hydroxyphenyl)-3-(3-fluorophenyl)prop-2-en-1-one]: the IC50 is 57.7 µM.

The data set is the same for the next values; noted with them: Candida albicans, ATCC10231, C. albicans ATCC 10231; mean and 95% confidence interval; read-out: IC50 [μg/mL].
As to `O=C(/C=C/c1ccccc1)c1cc(Cl)ccc1O` [Compound 1, (E)-1-(5-Chloro-2-hydroxyphenyl)-3-phenylprop-2-en-1-one], the IC50 came out at 13.7 µg/mL.
On to `O=C(/C=C/c1cccc(F)c1)c1cc(Cl)ccc1O` [Compound 3, (E)-1-(5-Chloro-2-hydroxyphenyl)-3-(3-fluorophenyl)prop-2-en-1-one], for which the IC50 stood at 16 µg/mL.

The data set is the same for the next values; noted with them: Candida albicans, ATCC10231; at 100 μM; C. albicans ATCC 10231; 24 h.
Compound `O=C(/C=C/c1ccccc1)c1cc(Cl)ccc1O` [Compound 1, (E)-1-(5-Chloro-2-hydroxyphenyl)-3-phenylprop-2-en-1-one] gave an inhibition at 100 µM of 65.2 ± 3.9%.
For `O=C(/C=C/c1cccc(F)c1)c1cc(Cl)ccc1O` [Compound 3, (E)-1-(5-Chloro-2-hydroxyphenyl)-3-(3-fluorophenyl)prop-2-en-1-one], the inhibition at 100 µM was 64.8 ± 1.5%.
